In publication PMC7466159, “Anti-Metastasis Fascin Inhibitors Decrease the Growth of Specific Subtypes of Cancers” (Cancers, 2020):

Assays:
[1] = test system: 4T1 breast tumor cells; assay: 4T1 metastatic recurrence after chemotherapy and surgical removal of primary tumor; type: in vivo, mice; conditions: 100 mg/kg once daily by gavage starting on Day 3, with paclitaxel and surgery; compared to chemotherapy alone, p < 0.05; Day 32
Protocol: Female BALB/c mice (6- to 8-week old) were purchased from Charles River Labs. The 4T1 tumor cells (1 × 10^5) were injected subcutaneously into the abdominal mammary gland area of mice using 0.1 mL of a single-cell suspension in PBS-matrigel (v/v, 1:1) on Day 0 as previously described. […] On Day 28, the mice were sacrificed. […] The numbers of metastatic 4T1 cells in lungs were determined by a clonogenic assay. In brief, the lungs were removed from each mouse, finely minced and digested in 5 mL of an enzyme cocktail containing 1 × PBS and 1 mg/mL collagenase type IV for 2 h at 37 ℃ on a platform rocker. After incubation, samples were filtered through 70-µm nylon cell strainers and washed twice with PBS. The resulting cells were suspended and plated with a series of dilutions in 10-cm tissue culture dishes in DMEM medium containing 60 µM thioguanine for clonogenic growth. As 4T1 tumor cells are resistant to 6-thioguanine, the metastasized tumor cells formed foci after 14 days, at which time they were fixed with 4% paraformaldehyde and stained with crystal violet staining solution for counting. For the experiments in Figure 2F,G, 4T1 tumor cells (1 × 10^5) suspended in PBS-matrigel (v/v, 1:1) were injected subcutaneously into the abdominal mammary gland area of mice on day 0. Starting on Day 3, NP-G2-044 was given to mice once every day by oral gavage at 100 mg kg^−1 per mouse. […]

[2] = test system: MDA-MB-231 human triple-negative breast cancer cells; assay: Overall survival of MDA-MB-231 tumor-bearing mice; type: in vivo
Protocol: The numbers of metastatic MDA-MB-231 cells in lungs were determined by a clonogenic assay. The lungs were removed from each mouse once sacrificed, and the resulting cells were suspended and plated with a series of dilutions in 10-cm tissue culture dishes in medium containing 2.0 µg/mL puromycin for clonogenic growth. As these MBA-MB-231 tumor cells were stably transfected with the vector pSuper-puro, the metastasized tumor cells formed foci after 14 days, at which time they were fixed with 4% paraformaldehyde and stained with crystal violet staining solution for counting. For combination treatments with chemotherapy, MDA-MB-231 tumor cells (1 × 10^5) suspended in PBS-matrigel (v/v, 1:1) were injected subcutaneously into the abdominal mammary gland area of mice on Day 0. Starting on Day 0, 7, or 14, NP-G2-044 was given to mice once a day for 6 days every week by oral gavage at 300 mg/kg per mouse. A vehicle solvent was given to the control mice once a day for 6 days every week. Starting on day 14, doxorubicin hydrochloride (MilliporeSigma, St. Louis, MO, USA) (2 mg/kg) and cyclophosphamide monohydrate (MilliporeSigma) (60 mg/kg) were given to mice once a week for four weeks. Primary tumors were removed on day 28. The death of the mice was used as the endpoint.

[3] = test system: NF-κB nuclear translocation in U2932 cells; assay: p65 (NF-κB) nuclear translocation, Western blotting, U2932; type: cell-based; conditions: 30 µM, 16 h
Protocol: We treated U2932 cells with or without NP-G2-044, and measured the potential effects of NP-G2-044 on various pathways critical for lymphoma cell growth.
The lymphoma cells were plated in 10-cm dish. After culture for 24 h, cells were incubated in serum-free medium for 16 h. Cells were then incubated in growth medium with 30 µM NP-G2-044 or dissolvent for 16 h, followed by collecting whole cell lysates or nuclear extracts as previously described.

[4] = test system: NF-κB nuclear translocation in Ly10 cells; assay: p65 (NF-κB) nuclear translocation, Western blotting, Ly10; type: cell-based; conditions: 30 µM, 16 h
[5] = test system: MDA-MB-468 triple-negative breast cancer cells; assay: Cell growth assay, MDA-MB-468; type: cell-based; conditions: MDA-MB-468 cells in culture, 10% serum
[6] = test system: HCC38 triple-negative breast cancer cells; assay: Cell growth assay, HCC38; type: cell-based; conditions: HCC38 cells in culture, 10% serum
[7] = test system: phosphorylation of ERK, PLCγ1, and PI3K in MDA-MB-468 cells; assay: EGFR signaling pathway Western blotting, MDA-MB-468; type: cell-based; conditions: 10 ng/mL EGF, 30 µM, 24 h
Protocol: (§1) MDA-MB-468 cells and HCC38 cells grew in the presence of EGF with or without NP-G2-044. […] Finally, we used the animal model to investigate whether the primary tumor growth of MDA-MB-468 cells was sensitive to fascin inhibitors. MDA-MB-468 tumor cells were implanted into the mammary gland of NSG mice, and these mice were randomly divided into four groups. One group of mice was used as control (Figure 6I). The second group of mice was treated with the fascin inhibitor NP-G2-044 (Figure 6I). The third group was treated with the EGFR inhibitor gefitnib (Figure 6I), and the fourth group was treated with the combination of NP-G2-044 + gefitinib (Figure 6I). […] We dissected the primary tumor tissues 55 days after the tumor implantation from some mice. […] Furthermore, the overall survival of the mice was analyzed (Figure 6K).
(§2) For the cell signal pathway analysis of breast cancer cells, HCC38 and MDA-MB-468 cells were plated in a 10-cm dish. After culture for 24 h, cells were incubated in serum-free medium for 16 h.

[8] = test system: phosphorylation of ERK, PLCγ1, and PI3K in HCC38 cells; assay: EGFR signaling pathway Western blotting, HCC38; type: cell-based; conditions: 10 ng/mL EGF, 30 µM, 24 h
Protocol: as §1, §2

[9] = test system: MDA-MB-468 tumor cells; assay: MDA-MB-468 breast cancer model in NSG mice (tumor growth, overall survival); type: in vivo; conditions: treatment from Day 14, compared with the control group
Protocol: as §1
For the breast cancer model, MDA-MB-468 cells (5 × 10^6) suspended in PBS-matrigel (v/v, 1:1) were injected subcutaneously into the abdominal mammary gland area of female NSG mice on Day 0 as previously described. Starting on Day 14, NP-G2-044 was given once a day for 5 days every week by gavage at 300 mg kg^−1 per mouse until their death. Starting on Day 14, gefitinib was given twice weekly by gavage at 150 mg kg^−1 per mouse until their death. The control solvent was given once a day for 5 days every week by gavage according to their body weight until their death. […] The primary tumor volume was calculated as length × width^2 ×π/6.

[10] = test system: 4T1 triple-negative breast cancer cells; parameters: method as in PMID 26081695, PMID 27071719; conditions: 4T1 cells; cited from earlier work
[11] = test system: Ly10 cells; assay: Cell growth assay, Ly10; conditions: Ly10 cells in culture, 4 days
Protocol: We then extended our search to other types of lymphoma cells. […] Both U2932 and Ly10 cells are ABC-subtype DLBCLs, and HT cells are diffuse mixed lymphoma.
For NP-G2-044 dose-dependent studies, 1 × 10^5 Ly10, U2932, or HT cells were seeded in a 12- or 24-well plate on day 0. A total of 1, 3, 10, 30, or 100 μM NP-G2-044 or control solvent was added to the plates. Cells were collected and counted on day 4. For time-dependent studies, 1 × 10^5 Ly10, U2932, or HT cells were seeded in a 12- or 24-well plate on day 0. A total of 30 μM NP-G2-044, 5 μM LY2409881, 30 μM NP-G2-044 plus 5 μM LY2409881, or control solvent was added to the plates. Cells were collected and counted on Days 2 and 4. […] The cell growth index was expressed as the fold changes of cell numbers over the starting cell number. For these assays, the old medium was changed with a fresh medium containing the control solvent or the inhibitors every two days.

[12] = Pharmacokinetic study after single IV and oral gavage dose, plasma by LC-MS/MS; conditions: mice
Protocol: The PK parameters of NP-G2-044 were assessed following a single intravenous (IV) and single oral (PO) gavage dose administration to mice. Blood samples were collected pre-dose, and 3, 10, 30 min, 1, 1.5, 3, 6, 9, 24, 32, or 48 h after dosing. The plasma samples were then extracted and the concentrations of NP-G2-044 were determined by LC-MS/MS.
The concentrations of NP-G2-044 in plasma were determined using high performance liquid chromatography with tandem mass spectrometry (LC-MS/MS). All blood samples were transferred into a commercial tube containing potassium (K2) EDTA (ethylene diaminetetraacetic acid) and were processed for plasma. Samples were centrifuged (3000× g for 10 min at 2 to 8 °C) within one hour of collection. The assays used a Sciex API 4000 detector and nifedipine as an internal standard. The calibration ranges for NP-G2-044 were from 5.00 to 5000 ng/mL. The plasma concentration of NP-G2-044 in mice was subjected to a non-compartmental pharmacokinetic analysis by using the Phoenix WinNonlin software (version 6.3, Pharsight, Mountain View, CA, USA). The nominal dose levels and nominal sampling times were used in the calculation of all pharmacokinetic parameters. The linear/log trapezoidal rule was applied in obtaining the PK parameters.

Cc1occc1C(=O)Nc1nn(Cc2ccc(C(F)(F)F)cc2)c2ccccc12 [NP-G2-044]
metastatic recurrence of breast tumors in the lung [1]: slowed the metastatic recurrence | increase of median overall survival ([2]; NSG mice, compared with the control group, primary tumors removed on day 28): ~ 29% | overall survival by start of treatment ([2]; combination with chemotherapy, NP-G2-044 starting on Day 0 and Day 7 versus Day 14): longer overall survival | nuclear translocation of the p65 subunits [3]: decreased | nuclear translocation of the p65 subunits [4]: also observed | growth sensitivity [5]: sensitive | growth sensitivity [6]: sensitive | phosphorylation of ERK, PLCγ1, and PI3K [7]: affected | phosphorylation of ERK, PLCγ1, and PI3K [8]: affected | growth of primary tumors [9]: reduced the growth of primary tumors to the same degree | increase of median overall survival [9]: ~ 50% | induction of apoptosis [10]: did not induce the apoptosis | effect on cell growth [11]: inhibitory effect | Vd ([12]; IV, 20 mg/kg): 9.32 ± 1.35 L/kg | oral bioavailability (based on AUC0–t) ([12]; oral 20 to 100 mg/kg): 34–39%
